Laboratory results from ChEMBL document CHEMBL1201862, “PubChem BioAssay data set” (2004).
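Where inhibition never reached the appropriate level, the endpoint shown equals the highest concentration tested. Otherwise, values were interpolated linearly from a five-concentration, 48-hour dose response in 96-well plates. Abbreviation: GI50, concentration required for 50% inhibition of growth.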 The source made the active and inactive calls. Rule as the data show it: active = GI50 up to about 1.1 µM and inactive = higher.

Key:
Experiment in all cases: DTP human tumour cell line panel, 48 h
[1] = system: ACHN
[2] = system: CAKI-1
[3] = system: COLO 205
[4] = system: DU-145
[5] = system: HCT-15
[6] = system: HOP-62
[7] = system: HT-29
[8] = system: Hs-578T
[9] = system: MCF7
[10] = system: MDA-MB-435
[11] = system: NCI/ADR-RES
[12] = system: OVCAR-3
[13] = system: OVCAR-8
[14] = system: PC-3
[15] = system: SF-295
[16] = system: SNB-75
[17] = system: T47D
[18] = system: UACC-257
[19] = system: MOLT-4

Compound	GI50 [1]	GI50 [2]	GI50 [3]	GI50 [4]	GI50 [5] [µM]	GI50 [6]	GI50 [7]	GI50 [8]	GI50 [9]	GI50 [10]	GI50 [11]	GI50 [12]	GI50 [13]	GI50 [14]	GI50 [15]	GI50 [16]	GI50 [17]	GI50 [18]	GI50 [19]
Oc1ccc2ccccc2c1OCc1nnc(CCCCCCCCc2nnc(COc3c(O)ccc4ccccc34)n2Nc2ccccc2)n1Nc1ccccc1	1.23 µM (inactive)	12.3 µM (inactive)	0.399 µM (active)	19.7 µM (inactive)	16.5	1.06 µM (active)	10.7 µM (inactive)	18.2 µM (inactive)	5.62 µM (inactive)	2.43 µM (inactive)	8.2 µM (inactive)	12.9 µM (inactive)	20.9 µM (inactive)	2.68 µM (inactive)	0.223 µM (active)	38.4 µM (inactive)	25.9 µM (inactive)	6.38 µM (inactive)	
CSc1ncc2c(n1)-c1ccccc1OC2NC1CC1 (configuration not stated)	49.5 µM (inactive)	29.6 µM (inactive)	> 100 µM (inactive)	63 µM (inactive)	40.4		> 100 µM (inactive)	38.1 µM (inactive)	58.3 µM (inactive)	> 100 µM (inactive)	48.1 µM (inactive)	57.5 µM (inactive)	71.4 µM (inactive)	50.7 µM (inactive)	> 100 µM (inactive)	59 µM (inactive)	28.6 µM (inactive)	> 100 µM (inactive)	37.2 µM (inactive)
CC(=O)NC(=O)/N=C1\NCCC(=O)N1CCc1c[nH]c2ccccc12	> 100 µM (inactive)	> 100 µM (inactive)	> 100 µM (inactive)	> 100 µM (inactive)	> 100	> 100 µM (inactive)	> 100 µM (inactive)	> 100 µM (inactive)	> 100 µM (inactive)	> 100 µM (inactive)	> 100 µM (inactive)	> 100 µM (inactive)	> 100 µM (inactive)	> 100 µM (inactive)	> 100 µM (inactive)		> 100 µM (inactive)	> 100 µM (inactive)	> 100 µM (inactive)
CC1(C)OC2COC(c3n[nH]c4c(=O)[nH]c(=O)[nH]c34)C2O1 (configuration not stated)	> 100 µM (inactive)	> 100 µM (inactive)	> 100 µM (inactive)	> 100 µM (inactive)	> 100	> 100 µM (inactive)	> 100 µM (inactive)	> 100 µM (inactive)	> 100 µM (inactive)	> 100 µM (inactive)	> 100 µM (inactive)	> 100 µM (inactive)	> 100 µM (inactive)	> 100 µM (inactive)	> 100 µM (inactive)		> 100 µM (inactive)	> 100 µM (inactive)	> 100 µM (inactive)
N=c1oc2ccc([N+](=O)[O-])cc2cc1C(=O)Nc1ccccn1	35.5 µM (inactive)	> 100 µM (inactive)	44 µM (inactive)	60.4 µM (inactive)	44.3	25.3 µM (inactive)	49.8 µM (inactive)	29.1 µM (inactive)	12.2 µM (inactive)	37.6 µM (inactive)	97.3 µM (inactive)	20.6 µM (inactive)	92.3 µM (inactive)	12.9 µM (inactive)		60.1 µM (inactive)	26.8 µM (inactive)	> 100 µM (inactive)	> 100 µM (inactive)
CCCCC(=O)NC1(c2cc3ccccc3s2)CCCCC1	> 100 µM (inactive)	> 100 µM (inactive)	> 100 µM (inactive)	> 100 µM (inactive)	> 100	> 100 µM (inactive)	> 100 µM (inactive)	> 100 µM (inactive)	85.9 µM (inactive)	> 100 µM (inactive)	> 100 µM (inactive)	> 100 µM (inactive)	80.4 µM (inactive)	> 100 µM (inactive)	> 100 µM (inactive)	> 100 µM (inactive)	> 100 µM (inactive)	> 100 µM (inactive)	
O=C1c2sccc2C(=O)c2c(CO)csc21	3.52 µM (inactive)	15.1 µM (inactive)	2.69 µM (inactive)	2.66 µM (inactive)	2.49	4.71 µM (inactive)	3.3 µM (inactive)	4.17 µM (inactive)	5.12 µM (inactive)	1.94 µM (inactive)	3.63 µM (inactive)	1.9 µM (inactive)	3.66 µM (inactive)	3.32 µM (inactive)	2.69 µM (inactive)	5.24 µM (inactive)	4.71 µM (inactive)	2.15 µM (inactive)	4.89 µM (inactive)
CC(C)(C)C(=O)CC1=Nc2ccccc2SC1(O)CC(=O)C(C)(C)C (configuration not stated)	23.2 µM (inactive)	14.7 µM (inactive)	16.3 µM (inactive)	25.1 µM (inactive)	15.3	26.3 µM (inactive)	17.1 µM (inactive)	20.1 µM (inactive)	25 µM (inactive)	22.6 µM (inactive)	21.9 µM (inactive)	17 µM (inactive)	21.9 µM (inactive)	22.5 µM (inactive)	24.8 µM (inactive)		19.7 µM (inactive)	37.1 µM (inactive)	3.48 µM (inactive)
CC1(C)O[C@H]2OC(CO)C(OS(C)(=O)=O)[C@H]2O1 (some centres not stated)	> 100 µM (inactive)	> 100 µM (inactive)	> 100 µM (inactive)	> 100 µM (inactive)	> 100	> 100 µM (inactive)	> 100 µM (inactive)	> 100 µM (inactive)	> 100 µM (inactive)	> 100 µM (inactive)	> 100 µM (inactive)	> 100 µM (inactive)	> 100 µM (inactive)	> 100 µM (inactive)	> 100 µM (inactive)	> 100 µM (inactive)	> 100 µM (inactive)	> 100 µM (inactive)	
O=[N+]([O-])C1(C2([N+](=O)[O-])CCCC2)CCCC1		> 100 µM (inactive)	> 100 µM (inactive)	> 100 µM (inactive)	> 100		> 100 µM (inactive)	> 100 µM (inactive)	> 100 µM (inactive)	> 100 µM (inactive)	> 100 µM (inactive)	> 100 µM (inactive)	> 100 µM (inactive)	> 100 µM (inactive)		61 µM (inactive)	> 100 µM (inactive)	> 100 µM (inactive)	> 100 µM (inactive)
NCCCn1c(Cl)nc2ccccc21	> 100 µM (inactive)	> 100 µM (inactive)	> 100 µM (inactive)	> 100 µM (inactive)	> 100	> 100 µM (inactive)	> 100 µM (inactive)	> 100 µM (inactive)	> 100 µM (inactive)	> 100 µM (inactive)	> 100 µM (inactive)	> 100 µM (inactive)	> 100 µM (inactive)	> 100 µM (inactive)	> 100 µM (inactive)	> 100 µM (inactive)	> 100 µM (inactive)		> 100 µM (inactive)
COc1c(C(C)(C)C)cc(CC2C(=O)C=CC2=O)cc1C(C)(C)C	8.47 µM (inactive)	15.3 µM (inactive)	6.75 µM (inactive)	6.53 µM (inactive)	14.1	18.4 µM (inactive)	15.5 µM (inactive)	27 µM (inactive)	16.7 µM (inactive)	15.3 µM (inactive)	32 µM (inactive)	13.9 µM (inactive)	9.68 µM (inactive)	15.8 µM (inactive)	20.2 µM (inactive)		4.18 µM (inactive)	17.5 µM (inactive)	2.93 µM (inactive)
CC(=O)OC1=NN=C2COC(c3ccccc3OC(C)=O)=NN2C1	> 50 µM (inactive)	> 50 µM (inactive)	40.1 µM (inactive)	> 50 µM (inactive)	> 50	> 50 µM (inactive)	39 µM (inactive)	24 µM (inactive)	> 50 µM (inactive)	> 50 µM (inactive)	> 50 µM (inactive)	> 50 µM (inactive)		20.1 µM (inactive)	> 50 µM (inactive)	15.8 µM (inactive)	> 50 µM (inactive)	20.4 µM (inactive)	
N=c1oc2ccccc2cc1-c1nc2ccccc2[nH]1	16.9 µM (inactive)	43.9 µM (inactive)	51.2 µM (inactive)	18.4 µM (inactive)	31.5	53 µM (inactive)	36 µM (inactive)	41 µM (inactive)	19.9 µM (inactive)	15.5 µM (inactive)	22.3 µM (inactive)		71.6 µM (inactive)	78 µM (inactive)	78.3 µM (inactive)	41.1 µM (inactive)	16.7 µM (inactive)	> 100 µM (inactive)	10.1 µM (inactive)
CN(C)CC(NC(NCS)C(=O)NCCNc1ccc(NCCNC(=O)C(NCS)NC(CN(C)C)OCCl)c2c1C(=O)c1c(O)ccc(O)c1C2=O)OCCl (configuration not stated)	< 0.001 µM (active)	< 0.001 µM (active)	1.34 µM (inactive)	0.0365 µM (active)	0.13	0.0151 µM (active)	0.0261 µM (active)	0.243 µM (active)	0.01 µM (active)	0.151 µM (active)	1.58 µM (inactive)	0.387 µM (active)	0.00377 µM (active)	0.256 µM (active)	0.00518 µM (active)	0.0318 µM (active)	0.0327 µM (active)	0.929 µM (active)	
COc1ccc(/C=C/C(=O)/C=C/c2ccc(OC)cc2)cc1	89.1 µM (inactive)	> 100 µM (inactive)	34.5 µM (inactive)	> 100 µM (inactive)	47.8	> 100 µM (inactive)	29.3 µM (inactive)	47.2 µM (inactive)	47.8 µM (inactive)	14.6 µM (inactive)	97.1 µM (inactive)	32.1 µM (inactive)	17.6 µM (inactive)	69.3 µM (inactive)	> 100 µM (inactive)	38.9 µM (inactive)	55.3 µM (inactive)	20 µM (inactive)	51.1 µM (inactive)
